Measurements reported in US20230277508A1, “USE OF COMPOUND AS CYP2E1 INHIBITOR” (SHANGHAI LING XI BIOTECHNOLOGY DEVELOPMENT CO., LTD., priority 2020, published 2023).

How the values were obtained:
[1] = test system: ovarian cancer ID8 cell line abdominal transplanted tumor; experiment: Mouse ovarian cancer abdominal transplanted tumor model (ID8); format: in vivo, C57/6 mouse; conditions: SMI0 30 mg/kg ig daily, 30-day modeling
Description: Experimental method: A female C57/6 mouse ovarian cancer abdominal transplanted tumor model was constructed with an ovarian cancer murine ID8 cell line at a cell concentration of 2.5×10^6. A model group and an SMI0 intervention group were set for the experiment. The intervention group was intragastrically administered with the SMI0 compound at 30 mg/kg every day from three days before modeling to the end of the 30-day modeling (model group, n=10 mice; and SMI0 compound (30 mg/kg) group, n=11 mice). At the end of the experiment, blood was collected from the orbit, a body weight was measured, then the mice each were sacrificed, and ovary tissues were collected. Ovary tissue specimens were subjected to HE staining, and then the ovary tissue lesion and tumorigenesis of mice in each group were observed.

CYP2E1 = target: T1, CYP2E1 (Mus musculus, UniProt Q05421); experiment: CYP2E1 activity (liver microsome) in in situ transplanted mouse glioma model; format: in vivo; conditions: SMI0 intervention group vs model group, P<0.001
T1 construct: from tissue; host or cells: liver microsomes of treated model mice (calcium precipitation)
T1 sequence (Q05421 whole entry): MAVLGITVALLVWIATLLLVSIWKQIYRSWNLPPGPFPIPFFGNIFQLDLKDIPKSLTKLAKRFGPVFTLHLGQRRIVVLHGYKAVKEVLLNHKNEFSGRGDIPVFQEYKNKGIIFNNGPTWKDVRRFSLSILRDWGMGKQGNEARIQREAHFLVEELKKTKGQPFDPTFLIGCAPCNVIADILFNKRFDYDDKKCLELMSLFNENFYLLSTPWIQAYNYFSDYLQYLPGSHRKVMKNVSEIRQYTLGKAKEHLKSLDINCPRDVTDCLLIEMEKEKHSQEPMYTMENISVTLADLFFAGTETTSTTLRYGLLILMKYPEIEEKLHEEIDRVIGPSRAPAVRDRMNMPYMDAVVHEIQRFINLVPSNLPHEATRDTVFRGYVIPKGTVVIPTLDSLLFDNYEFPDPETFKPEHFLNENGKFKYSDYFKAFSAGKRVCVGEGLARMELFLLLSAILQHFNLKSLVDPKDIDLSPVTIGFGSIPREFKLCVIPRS
Description: Experimental method: A calcium precipitation method was used to prepare a mouse liver microsome, and a Braford method was used to determine a protein concentration in the microsome. An incubation system was prepared with 2×PBS, a CZX solution, and the liver microsome at a final concentration of 0.5 mg/mL, and then pre-incubated at 37° C. for 5 min; NADPH was added to initiate a reaction, and a resulting mixture was incubated at 37° C. for 30 min and then placed on ice to terminate the reaction; and ethyl acetate was added to extract 6-hydroxychlorzoxazone, a resulting mixture was vortexed and centrifuged, and a resulting upper organic phase was collected and blow-dried with nitrogen. A peak area of a CZX metabolite 6-hydroxychlorzoxazone was detected by HPLC under the following conditions: methanol:water=56:44, and detection wavelength: 287 nm. A concentration A C of the metabolite 6-hydroxychlorzoxazone was calculated through substitution into a standard curve; and a reaction rate of conversion of CZX into 6-hydroxychlorzoxazone was calculated according to V(pmol/min/mg)=(ΔC*1000)/(B*T) to evaluate an enzymatic activity of CYP2E1, where B represents a protein concentration of the microsome (mg/mL) and T represents an incubation time (min). A correlation between CYP2E1 activity and tumor size in the mouse glioma model was analyzed.

HepG2 liver cancer cells = experiment: Direct effect on HepG2 liver cancer cells; format: cell-based; conditions: up to 100 μmol/L, 24 h
Description: Experimental method: HepG2 liver cancer cells and H22 liver cancer cells in a logarithmic growth phase each were selected and inoculated into a 96-well plate at a concentration of 1*10^5 cells/mL, and then 100 μL of a basic medium including SMI0 at different concentrations (0 μmol/L, 0.16 μmol/L, 0.8 μmol/L, 4 μmol/L, 20 μmol/L, and 100 μmol/L) was added to each well; and 24 h later, the proliferation activity of HepG2 was determined by a CCK8 method, a migration ability of HepG2 was determined by wound-healing assay, and an apoptosis ability of HepG2 was determined by flow cytometry (FCM).

[2] = test system: LPS-induced sepsis in rats; experiment: LPS-induced rat sepsis model; format: in vivo, SD rat; conditions: SMI0 150 mg/kg ig or celecoxib 5 mg/kg ig 30 min before LPS 5 mg/kg ip; 4 h, 5 h, 6 h; vs model group
Description: Rats: An SD rat sepsis model was constructed through single intraperitoneal injection of LPS (5 mg/kg). 30 min before LPS administration, rats in the model group were administered with NS (0.5 mL/kg, i.g.), rats in the positive control group were administered with celecoxib (5 mg/kg, i.g.), and rats in the CYP2E1 inhibition group were administered with the compound SMI0 (150 mg/kg, i.g.). After LPS administration, a body temperature of each rat was measured and recorded every hour until 9 h (control group, n=8 rats; model group, n=10 rats; celecoxib group, n=10 rats; and SMI0 compound group, n=10 rats).

[3] = test system: lung cancer cell line Lewis in situ transplanted tumor; experiment: Mouse lung cancer model, in situ implantation of Lewis cells into lungs; format: in vivo, C57BL/6N mice
Description: Experimental method: A female C57 mouse lung cancer model with an in situ transplanted tumor was prepared with a lung cancer cell line Lewis at a cell amount of 2*10^4. C57BL/6N mice were divided into a control group, a model group, a positive drug group, and an SMI0 intervention group, and the modeling took 18 days (control group, n=20; model group, n=20; positive drug group (20 mg/kg), n=15; SMI0 (3.3 mg/kg), n=15; SMI0 (10 mg/kg), n=20; and SMI0 (30 mg/kg), n=20). At the end of the experiment, a body weight of mice in each group was recorded, blood was collected from the orbit, the mice were sacrificed, and lung tissues and tumor tissues were collected and weighed. The weight and appearance of the lung (color, texture, or the like of the lung) were recorded. All tumors of an animal were cumulatively arranged together to indicate the tumorigenesis of the animal, and a cumulative weight of lung tumors in each animal was determined. Some lung specimens were subjected to HE staining, and then the lung lesion and tumorigenesis of mice in each group were observed.
Experimental method: A WB method was used to detect the expression of […] cytokines TGF-β, IL-10, and IL-4, inflammation-associated signaling pathway proteins IL-6/p-STAT3 and p-ERK1/2/ERK1/2, and epithelial-mesenchymal transition (EMT)-associated proteins MMP-2 and MMP-9 in the mouse paracancerous lung tissue of each group and detect the expression of […] proteins caspase3 and Bcl-2 and an autophagy-associated protein p53 in the tumor tissue.

[4] = test system: GL261 cells / M2 microglial cells; experiment: GL261 cells co-cultivated with M2 microglial cells; format: cell-based, mouse; conditions: SMI0 50 μmol/L vs M2 microglial cell co-cultivation group
Description: Experimental method: 10 1-2 d newborn C57BL/6 WT mice and 6 CYP2E1^−/− mice were taken, primary microglial cells and astrocytes were collected and inoculated into 6-well plates, and 24 h later, culture supernatants were taken and co-cultivated with glioma cells. Experimental groups: control group; M2 model group; high-concentration, medium-concentration, and low-concentration SMI0 (50 μmol/L, 12.5 μmol/L, and 3.1 μmol/L) groups; and CYP2E1 gene-knockout group. 24 h later, supernatants were discarded; and […] and IL-13 each were added at 20 ng/mL to induce the transformation of microglial cells into the M2 type in the M2 model group and the high-concentration, medium-concentration, and low-concentration SMI0 groups, and different concentrations of SMI0 (50 μmol/L, 12.5 μmol/L, and 3.1 μmol/L) were also added in the intervention groups. The proliferation of glioma cells was determined by a CCK8 method, and an apoptosis proportion was determined by an Annexin V-FITC-PI apoptosis staining kit.

[5] = WB, SMI0 30 mg/kg vs model group, P<0.05

CC(=O)c1scnc1C [SMI0]
inhibition rate for the ascites weight [1]: 83.78% | ascites volume ([1]; vs model group): significantly reduced | body weight of mice ([1]; vs model group): significantly reduced | inhibition rate for tumor proliferation of the greater momentum ([1]; as high as): 58.70% | CYP2E1 activity (CYP2E1): significantly reduced | effect on the proliferation, migration, and apoptosis of HepG2 liver cancer cells (HepG2 liver cancer cells): no significant inhibitory effect | increase in body temperature in the LPS-induced sepsis rat model [2]: avoided | expression of the autophagy-associated protein p53 in the tumor tissue ([3]; WB, SMI0 30 mg/kg vs model group, P<0.01): significantly increased | expression of Bcl-2 in the tumor tissue [3, 5]: significantly reduced | expression of caspase3 in the tumor tissue [3, 5]: significantly reduced | expression of proinflammatory cytokines (TGF-β and IL-10), IL-6/p-STAT3, p-ERK1/2/ERK1/2, MMP-2 and MMP-9 in the paratumoral tissue ([3]; WB, SMI0 intervention group vs model group, P<0.05): significantly reduced | tumor proliferation inhibition rate ([3]; as high as, SMI0 intervention group (3.3, 10, 30 mg/kg), 18 days, lung tumor weight): 68.3% | apoptosis of GL261 cells [4]: promoted | proliferation of GL261 cells ([4]; P<0.001): significantly inhibited
